Measured values: US20190134148A1, “COMBINATION THERAPY” (BIG DNA LTD, priority 2016, published 2019)
Read-outs that look alike come from different tables or passages of the source.

Key:
[1] = system: T47D breast cancer cell line; assay: Sulforhodamine B viability assay and isobologram / combination index in T47D cells; type: cell-based; conditions: for CI: single agent
Procedure: For assessment of combined BTZ and cilengitide toxicity, T47D cells were seeded at a density of 7500 cells/cm^2 in 96-well cell culture plates and incubated for 24 hours. Cilengitide was diluted to 20 μM in complete DMEM, then 3 serial tenfold dilutions of this were performed in complete DMEM (2 μM, 200 nM and 20 nM). Complete DMEM containing no cilengitide was provided for negative controls.
These dilutions (or DMSO for wells containing no BTZ) were added to aliquots of complete DMEM containing 0-20 μM cilengitide for a 1/150 dilution. Aliquots (0.1 mL) of each mixture were added to wells already containing 0.1 mL medium (in duplicate), resulting in a matrix of cilengitide (10 nM-10 μM) and/or BTZ (1 nM-10 μM) or neither agent (diluent only).
OD570nm readings were divided by those resulting from negative control (diluent only) wells and expressed as a percentage. Three independent replicates of this experiment were carried out.
The isoboles were obtained similarly by extrapolation of points representing 50% reduction in viability from line graphs of % viability versus concentration of one agent at variable concentration with the other agent supplied at a fixed concentration.
The position of the points on this graph (FIG. 6) indicates whether a combined effect is synergistic (falling below/left of the line) antagonistic (falling above/right of this line) or additive (on or close to this line).
CA,x and CB,x are the concentrations of drug A and drug B used in combination to achieve x % drug effect. ICx,A and ICx,B are the concentrations for single agents to achieve the same effect.

[2] = system: NCI H-929 human multiple myeloma cells; assay: NCI-H929 sub-cutaneous xenograft mouse tumor model, 'high' bortezomib dose (Example 7); type: in vivo, SCID mouse; conditions: for Complete response / No response / Partial response: mice of N = 10; for Complete response / No response / Partial response / Total RR %: bortezomib 1 mg/kg IV biweekly, cilengitide 45 mg/kg IP QD; for Total RR %: sum of PR+CR
From the text: This was then continued until Day 21.
Partial response (PR) is defined as the first measurement of the tumor volume being 50% or less of its Day 1 volume for three consecutive measurements during the course of the study, and equal to or greater than 13.5 mm^3 for one or more of these three measurements. In a complete response (CR), the tumor volume was less than 13.5 mm^3 for three consecutive measurements during the course of the study. Total response rate (RR) is the sum of PR+CR. Treatment began on day 1 and was stopped on Day 21.

[3] = Cilengitide oral bioavailability, plasma level by LC-MS after intra-gastric gavage; type: in vivo; conditions: mice, 100 mg/kg intra-gastric gavage
Procedure: 3 mice were dosed with cilengitide at 100 mg/kg by intra-gastric gavage. Bleeds (0.1 mL) were taken before dosing and 5 and 15 minutes post dosing. Terminal bleeds (orbital vein) were taken at 60 minutes post-dose. All bleeds were transferred into Li-heparin tubes and plasma prepared by centrifugation. Aliquots of plasma (pooled per timepoint) were processed for analysis by addition of 3 volumes of acetonitrile, centrifuged for 1 minute at 13,000 rpm, then the supernatant recovered.
Samples were analysed by LC-MS alongside standards containing known amounts of cilengitide (1 ng/mL-1000 ng/mL). Cilengitide was undetectable in pre-dose, 5 minute and 15 minute time points. At the 60 minute time point: cilengitide levels were estimated to be 94.2 ng/mL.

[4] = system: NCI H-929 multiple myeloma cell line; assay: NCI H-929 sub cutaneous tumour study with varied BTZ dose, TGI and TTE (Example 8); type: in vivo, mice; conditions: day 18
Procedure: Cilengitide or vehicle was supplied as daily intra-peritoneal injection (45 mg/kg). […] After this point, dosing was continued in groups receiving 0.2 mg/kg and 0.5 mg/kg BTZ t cilengitide until day 31 to allow comparative tumour growth delay (i.e. difference in time to endpoint (TTE). […] TTE was calculated as TTE=[log(endpoint volume)-b]/m where TTE is expressed in days, endpoint volume is expressed in mm^3, b is the intercept, and m is the slope of the line obtained by linear regression of a log-transformed tumour growth data set. TTE values were plotted in Kaplan-Meier diagrams (FIGS. 9 and 10).

[5] = CD-1 mice; 4 mg/kg PO versus 0.8 mg/kg intravenously; cited from earlier work
[6] = Sprague-Dawley rats; AUC intravenous versus intra-gastric administration; cited from earlier work
[7] = biological target: 20S proteasome (Homo sapiens, UniProt P20618+P28074); conditions: cited from earlier work
[8] = system: CWR22 human prostate cancer xenografts; conditions: cited from earlier work
[9] = system: WSU-DLCL2 lymphoma xenograft; conditions: at MTD; cited from earlier work
[10] = system: PHTX22L xenografts; conditions: MTD level treatment; cited from earlier work
[11] = system: DP54-Luc model; conditions: in vivo; cited from earlier work
[12] = By Day 42, treatment stopped on Day 21, N = 10
[13] = at maximum tolerated dose (MTD)

SMILES: CC(C)[C@H]1C(=O)N[C@@H](CCCN=C(N)N)C(=O)NCC(=O)N[C@@H](CC(=O)O)C(=O)N[C@H](Cc2ccccc2)C(=O)N1C [Cilengitide]
- IC50 ([1]; read-out: Cilengitide (M), concentration resulting in 50% reduction in viability as single agent (IC50), bortezomib 0): 6.2e-06 M
- CI [1]: 1.00
- Complete response ([2]; Day 1): 0
- No response ([2]; Day 1): 10
- Partial response ([2]; Day 1): 0
- Total RR % ([2]; Day 1, N = 10): 0%
- Complete response ([2]; Day 4): 0
- No response ([2]; Day 4): 10
- Partial response ([2]; Day 4): 0
- Total RR % ([2]; Day 4, N = 10): 0%
- Complete response ([2]; Day 8): 0
- No response ([2]; Day 8): 10
- Partial response ([2]; Day 8): 0
- Total RR % ([2]; Day 8, N = 10): 0%
- Complete response ([2]; Day 12): 0
- No response ([2]; Day 12): 10
- Partial response ([2]; Day 12): 0
- Total RR % ([2]; Day 12, N = 10): 0%
- Complete response ([2]; Day 15): 0
- No response ([2]; Day 15): 10
- Partial response ([2]; Day 15): 0
- Total RR % ([2]; Day 15, N = 10): 0%
- Complete response ([2]; Day 18): 0
- No response ([2]; Day 18): 10
- Partial response ([2]; Day 18): 0
- Total RR % ([2]; Day 18, N = 10): 0%
- Complete response ([2]; Day 21): 0
- No response ([2]; Day 21): 10
- Partial response ([2]; Day 21): 0
- Total RR % ([2]; Day 21, N = 10): 0%
- cilengitide levels in plasma ([3]; 5 minute time point): undetectable
- cilengitide levels in plasma ([3]; 15 minute time point): undetectable
- level at 1 h ([3]; mouse, plasma, po, 60 minute time point, read-out: cilengitide levels in plasma): 94.2 ng/mL

SMILES: CC(C)C[C@H](NC(=O)[C@H](Cc1ccccc1)NC(=O)c1cnccn1)B(O)O [Bortezomib]
- CI [1]: 1.00
- mice showing a complete response ([2]; By Day 8, bortezomib 1 mg/kg): 10%
- animals remained 'cured' (tumours did not regrow) ([2]; By Day 42, treatment stopped on Day 21): 60%
- animals that reached end point (tumour volume>2000 mm^3) [2, 12]: 1
- animals that relapsed [2, 12]: 3 animals
- Complete response ([2]; Day 1): 0
- No response ([2]; Day 1): 10
- Partial response ([2]; Day 1): 0
- Total RR % ([2]; Day 1, N = 10): 0%
- Complete response ([2]; Day 4): 0
- No response ([2]; Day 4): 7
- Partial response ([2]; Day 4): 3
- Total RR % ([2]; Day 4, N = 10): 30%
- Total RR % ([2]; Day 4, N = 10, listed as bortezomib): 30%
- Complete response ([2]; Day 8): 1
- No response ([2]; Day 8): 3
- Partial response ([2]; Day 8): 6
- Total RR % ([2]; Day 8, N = 10): 70%
- Complete response ([2]; Day 12): 4
- No response ([2]; Day 12): 2
- Partial response ([2]; Day 12): 4
- Complete response ([2]; Day 15): 4
- No response ([2]; Day 15): 2
- Partial response ([2]; Day 15): 4
- Complete response ([2]; Day 18): 4
- No response ([2]; Day 18): 1
- Partial response ([2]; Day 18): 5
- Total RR % ([2]; Day 18, N = 10): 90%
- Complete response ([2]; Day 21): 5
- No response ([2]; Day 21): 1
- Partial response ([2]; Day 21): 4
- Total RR % ([2]; Day 21, N = 10): 90%
- Total RR % ([2]; Day 21, N = 10, listed as bortezomib): 90%
- mice that failed to respond at all ([2]; last treatment day (Day 21), bortezomib 1 mg/kg): 10%
- Tumour growth inhibition (TGI) ([4]; 0.5 mg/kg BTZ and below, without cilengitide): virtually ineffective
- Tumour growth inhibition (TGI) ([4]; BTZ doses of 0.7 mg/kg and greater, biweekly intravenous): almost complete TGI
- estimated oral bioavailability [5]: approximately 11%
- calculated bioavailability [6]: 46%
- proteasome dissociation half-life [7]: approximately 110 minutes
- anti-tumoral activity [8, 13]: effective anti-tumoral activity
- anti-tumoral activity [9]: ineffective

SMILES: CC(C)C[C@H](NC(=O)CNC(=O)c1cc(Cl)ccc1Cl)B(O)O [Ixazomib, [(1R)-1-[[2-[(2,5-dichlorobenzoyl)amino]acetyl]amino]-3-methyl-butyl]boronic acid]
- proteasome dissociation half-life [7]: approximately 18 minutes
- release from proteasome, fold faster than bortezomib [7]: approximately 6 fold
- anti-tumoral activity ([8]; at half the MTD): more effective than bortezomib
- anti-tumoral activity [8, 13]: effective anti-tumoral activity
- anti-tumoral activity [9]: significant anti-tumoral activity
- anti-tumoral effect [10]: only ixazomib was found to exhibit an anti-tumoral effect
- alleviation of osteolytic bone disease [11]: effective
